Entries after “also recorded” stand apart in the source; their conditions may differ.
Legend:
SKOV-3 cells = assay: HIF-1α stabilization in hypoxia (Western blot); type: cell-based; conditions: for HIF-1α protein stabilization: hypoxia (2% O2), 6 h
Procedure: After treatments, cells were harvested into sample buffer containing: 0.2 M Tris-HCL, 4% SDS, 4% β-mercaptoethanol, 40% glycerol, 4 μM pyronin Y. Extracts were sheared through a 24-gauge syringe. Samples were separated by 10% SDS-PAGE and transferred to nitrocellulose membrane and probed with rabbit polyclonal anti-TARS (1:500; Santa Cruz Biotechnology, Dallas, Tex.) or monoclonal anti-HIF-1α (BD Transduction Laboratories, [BD Biosciences, San Jose, Calif.]) (Lounsbury, Beddow et al. 1994). Secondary antibodies were HRP-goat-anti-mouse and HRP-goat-anti-rabbit (1:5,000; Jackson Laboratories, Bar Harbor, Me.).

TARS [1] = molecular target: T1, TARS (Homo sapiens, UniProt P26639); assay: Ki of borrelidin compounds for TARS; type: biochemical; conditions: calculated; data not shown
T1 sequence (P26639 1-723): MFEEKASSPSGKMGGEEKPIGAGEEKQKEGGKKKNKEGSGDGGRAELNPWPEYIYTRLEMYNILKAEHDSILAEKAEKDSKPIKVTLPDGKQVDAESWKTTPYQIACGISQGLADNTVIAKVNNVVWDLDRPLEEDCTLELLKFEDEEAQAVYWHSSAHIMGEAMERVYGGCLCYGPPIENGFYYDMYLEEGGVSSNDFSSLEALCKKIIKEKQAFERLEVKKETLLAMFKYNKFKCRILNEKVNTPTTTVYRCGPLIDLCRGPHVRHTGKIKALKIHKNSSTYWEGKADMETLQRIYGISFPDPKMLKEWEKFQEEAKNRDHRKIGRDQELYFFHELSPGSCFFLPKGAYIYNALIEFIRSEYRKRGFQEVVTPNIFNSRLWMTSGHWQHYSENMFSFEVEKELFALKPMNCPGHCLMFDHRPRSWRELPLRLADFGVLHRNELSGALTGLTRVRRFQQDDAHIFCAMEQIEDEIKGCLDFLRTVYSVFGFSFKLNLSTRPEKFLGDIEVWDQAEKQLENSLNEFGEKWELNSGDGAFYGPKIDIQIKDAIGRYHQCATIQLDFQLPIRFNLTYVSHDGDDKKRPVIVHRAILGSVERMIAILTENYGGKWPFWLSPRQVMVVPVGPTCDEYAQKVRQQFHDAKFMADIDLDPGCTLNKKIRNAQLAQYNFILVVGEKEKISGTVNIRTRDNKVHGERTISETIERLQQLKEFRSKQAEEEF

TARS [2] = molecular target: T1, TARS; assay: Ap4A formation assay (TLC, [α-32P]-ATP); type: biochemical; design: His6 (N); made in house; host or cells: E. coli Rosetta 2 (DE3)pLysS, plasmid pET28a hctThrRS; conditions: 10 μM compound
TARS [3] = molecular target: T1, TARS; assay: Ap4G formation assay (TLC, [α-32P]-GTP); type: biochemical; design: His6 (N); made in house; host or cells: E. coli Rosetta 2 (DE3)pLysS, plasmid pET28a hctThrRS; conditions: human TARS, 10 μM compound
TARS [4] = molecular target: T1, TARS; assay: GTPase (GTP hydrolysis) assay; type: biochemical; design: His6 (N); made in house; host or cells: E. coli Rosetta 2 (DE3)pLysS, plasmid pET28a hctThrRS; conditions: 10 μM compound
[5] = tested on: chorioallantoic membrane (CAM) of chicken embryos; assay: Chick chorioallantoic membrane (CAM) assay; type: in vivo; conditions: purified protein applied daily to gelfoam sponge, 72 h
Procedure: Chick Chorioallantoic Membrane Assay—
Fertilized chicken eggs (Sunrise Farms, Catskill, N.Y.) day 1-2 post-laying were incubated in a humidified incubator at 37° C. for 72 h. Cleaned eggs were cracked and plated in a sterile 10 cm^2 tissue culture-treated dish and incubated at 37° C. for another 7 days. On developmental day 10, 1 mm^3 sterile gelatin sponge pieces (Surgifoam®; Johnson & Johnson Wound Management, Somerville, N.J.) were placed within the outer one-third of the membrane between large vessels. […] All compounds were applied in 10 μl to the CAM every 24 h for 72 h. Images were taken using a Leica MZ6 stereomicroscope every 24 h. Compounds were scored according to a modified version of Intensity Scoring as previously described (Ribatti, Nico et al. 2006). Briefly, each experimental condition was given a blinded score from 0-5 based on the change in the extent of vessel convergence and formation in proximity to the sponge from day 0 to day 3. Total score is averaged individual experimental condition scores from at least 15 replicates.
Fertilized chicken embryos were cultured ex-ova and, starting at developmental day 10, agents were applied daily to gelfoam sponges on the CAM. Images were recorded daily over 72 h and scored blindly according to a modified version Intensity Scoring as previously described (Ribatti, Nico et al. 2006). Additional details regarding methods are provided in the Methods and Materials section of Example 1.

HUVEC = assay: Transwell migration assay; type: cell-based, human; conditions: 100 nM protein in migration compartment, 4 h
Procedure: Transwell Migration Assay—
Migration was assessed using transwell inserts (Svensson, Kucharzewska et al. 2011). […] Cultures were incubated for 4 h, fixed in 10% formalin, and stained with 10 μg/ml DAPI solution (Roche) following removal of cells from the top layer of the chamber with a cotton swab. Migrated cells were imaged using a 4× objective on the Olympus IX70 Inverted microscope (Olympus). DAPI-stained nuclei were counted using ImageJ software.

[6] = LARS steady state ATPase activity (32P-ATP to AMP); type: biochemical; conditions: 1 μM human LARS
Procedure: LARS steady state ATPase activity was determined using the same procedure as for TARS aminoacylation with the following modifications. […] ATP (PerkinElmer, Waltham, Mass.) was added. Reactions were incubated for 3 minutes at 37° C. and initiated with the addition of 1 μM human LARS. At various time points 5 μl aliquots were quenched in 45 μl of 500 mM sodium acetate and 0.1% sodium dodecyl sulfate. For each sample, 1 μl was spotted onto a CCM cellulose PEI F plates (EMD) and resolved via thin-layer chromatography in 0.75 M potassium phosphate buffer mobile phase. Radioactive signals were detected via phosphorimaging and AMP production overtime was quantified using Quantity One v 4.6.6 software (Bio-Rad, Hercules, Calif.).

Row | Compound | HIF-1α transcription (SKOV-3 cells; SK-OV3 cells responding to hypoxia) | HIF-1α protein stabilization (SKOV-3 cells) | HIF-1α protein stabilization (SKOV-3 cells; listed as BC144) | Ki (TARS [1]) [nM] | Ap4A synthesis, inhibition (qualitative) (TARS [2]; human TARS) | decrease in Ap4A formation activity (TARS [2]; wildtype TARS) [%] | Ap4G synthesis, inhibition (qualitative) (TARS [3]) | change of TARS GTPase activity upon treatment with inhibitor (TARS [4]) | CAM vessel formation / vascularity, effect of applied synthetase [5] | migration of endothelial cells (HUVEC) | LARS enzyme activity (conversion of 32P-ATP to AMP) [6]
1 | C[C@@H]1C[C@H](C)C[C@H](C)[C@@H](O)CC(=O)O[C@H]([C@@H]2CCC[C@H]2C(=O)O)C/C=C/C=C(/C#N)[C@H](O)[C@@H](C)C1 [borrelidin] | no change in HIF-1α transcription | reduce HIF-1α stabilization | diminished the levels of HIF-1α protein stabilization | 4.6 | at least partially inhibited | 59.4 | at least partially inhibited | no observable change |  |  | 
2 | LARS: N-terminal HIS6-tagged human leucyl tRNA synthetase purified from E. coli |  |  |  |  |  |  |  |  | no observable effect; also recorded: no effect on angiogenesis | did not affect migration | exhibits enzyme activity

From patent US10125358B2, “Methods and compounds for increasing threonyl-tRNA synthetase activity” (UNIVERSITY OF VERMONT AND STATE AGRICULTURAL COLLEGE, priority 2012, dated 2018)
